Tests used:
[1] = test system: DIPGX7 (H3.3 K27M diffuse intrinsic pontine glioma line); assay: EC50 (inflection of fitted growth-inhibition curve) (log10 M)
Method in brief: (§1)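 Treatment used a pin tool and a 10-point threefold dilution series, mean top concentration 35 μM, run in triplicate on patient-derived pHGG/DIPG cell lines and astrocyte controls in 1% Geltrex-coated 384-well plates. Plates were kept at 37 °C, 5% CO2 for 7 days (iAstro: 3 days). Log2-transformed CellTiter-Glo luminescence was scaled per plate to % activity between negative (solvent) and positive control wells and pooled before fitting. EC50 and maximal response (yFin) came from the three- or four-parameter log-logistic fit chosen by lowest AICc.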

[2] = test system: iAstro (astrocyte control); assay: as above
Method in brief: as §1

[3] = test system: DIPGX9 (diffuse intrinsic pontine glioma line); assay: as above
Method in brief: as §1

[4] = test system: HABS (astrocyte control); assay: as above
Method in brief: as §1

[5] = test system: SUDIPGVI (diffuse intrinsic pontine glioma line); assay: as above
Method in brief: as §1

[6] = test system: HGGX6 (H3.3 G34R paediatric high-grade glioma line); assay: as above
Method in brief: as §1

[7] = test system: SUDIPGXIX (diffuse intrinsic pontine glioma line); assay: as above
Method in brief: as §1

[8] = test system: SUDIPGXVII (diffuse intrinsic pontine glioma line); assay: as above
Method in brief: as §1

[9] = test system: SUDIPGIV (diffuse intrinsic pontine glioma line); assay: as above
Method in brief: as §1

[10] = test system: SUDIPGXIII (diffuse intrinsic pontine glioma line); assay: as above
Method in brief: as §1

[11] = test system: DIPGX37 (H3.3 K27M diffuse intrinsic pontine glioma line); assay: as above
Method in brief: as §1

[12] = test system: SUDIPGXXI (diffuse intrinsic pontine glioma line); assay: as above
Method in brief: as §1

[13] = test system: HGGX2 (paediatric high-grade glioma line); assay: as above
Method in brief: as §1

[14] = test system: DIPGX29 (H3.3 K27M diffuse intrinsic pontine glioma line); assay: as above
Method in brief: as §1

[15] = test system: HGGX42 (H3.3 G34R paediatric high-grade glioma line); assay: as above
Method in brief: as §1

[16] = test system: HGGX39 (paediatric high-grade glioma line); assay: as above
Method in brief: as §1

[17] = test system: DIPGX7; assay: maximal growth inhibition (yFin) relative to DMSO / staurosporine; higher = more efficacious
Method in brief: as §1

[18] = test system: iAstro; assay: as above
Method in brief: as §1

[19] = test system: HABS; assay: as above
Method in brief: as §1

Row | SMILES | EC50 (log10 M) [1] | EC50 (log10 M) [2] | EC50 (log10 M) [3] | EC50 (log10 M) [4] | EC50 (log10 M) [5] | EC50 (log10 M) [6] | EC50 (log10 M) [7] | EC50 (log10 M) [8] | EC50 (log10 M) [9] | EC50 (log10 M) [10] | EC50 (log10 M) [11] | EC50 (log10 M) [12] | EC50 (log10 M) [13] | EC50 (log10 M) [14] | EC50 (log10 M) [15] | EC50 (log10 M) [16] | maximal growth inhibition [17] [%] | maximal growth inhibition [18] [%] | maximal growth inhibition [19] [%]
1 | CCNC(=O)c1noc(-c2cc(C(C)C)c(O)cc2O)c1-c1ccc(CN2CCOCC2)cc1 [NVP-AUY922] | -5.82 | -6.08 | -7.48 | -7.28 | -7.36 | -7.36 | -7.59 | -7.41 | -7.28 | -7.11 | -7.47 | -6.65 | -7.61 | -6.44 | -7.81 | -7.42 | 48.5 | 51 | 86.9
2 | CCCS(=O)(=O)c1nc(NC2CC2)cc(-c2ccc3c(ccn3C3CC(C)(C)NC(C)(C)C3)c2)n1 [NVS-1] | -5.64 | -5.72 | -5.62 | -5.42 | -5.79 | -5.83 | -5.92 | -5.75 | -5.52 | -5.49 | -5.99 | -5.34 | -5.95 | -6.09 | -5.95 | -5.57 | 95.1 | 83.2 | 86.9
3 | COC1=CC(c2cc3ccccc3[nH]2)=N/C1=C\c1[nH]c(C)cc1C [OBATOCLAX] | -5.53 | -5.45 | -5.05 | -5.01 | -5.71 | -5.1 | -5.51 | -5 | -5 | -4.99 | -5.01 | -5.64 | -5.97 | -5.01 | -5.63 | -5.02 | 129 | 101 | 128
4 | C[C@@H]1O[C@@H](O[C@H]2C[C@@H](O)[C@]3(CO)[C@H]4[C@H](O)C[C@]5(C)[C@@H](C6=CC(=O)OC6)CC[C@]5(O)[C@@H]4CC[C@]3(O)C2)[C@H](O)[C@H](O)[C@H]1O [OUABAIN] | -6.78 | -6.91 | -6.37 | -5.89 | -6.13 | -6.64 | -6.41 | -6.53 | -6.75 | -6.47 | -6.7 | -6.79 | -6.55 | -7.26 | -6.47 | -6.9 | 100 | 47.1 | 69.1
5 | Cc1[nH]c2ccccc2c1CCNCc1ccc(/C=C/C(=O)NO)cc1 [PANOBINOSTAT] | -6.73 | -6.78 | -7.16 | -6.59 | -6.87 | -6.93 | -6.75 | -6.69 | -6.92 | -6.04 | -6.87 | -7.22 | -6.89 | -6.97 | -6.95 | -6.81 | 89 | 48 | 95.2
6 | OC1(c2ccc(Cl)c(C(F)(F)F)c2)CCN(CCCC(c2ccc(F)cc2)c2ccc(F)cc2)CC1 [PENFLURIDOL] | -5.6 | -5.63 | -5.4 | -4.88 | -5.28 | -5.23 | -5.53 | -5.21 | -5.56 | -5.21 | -5.35 | -5.9 | -5.63 | -5.43 | -5.63 | -5.24 | 102 | 85.2 | 88.6
7 | Cc1ccc(C(=O)Nc2ccc(CN3CCN(C)CC3)c(C(F)(F)F)c2)cc1C#Cc1cnc2cccnn12 [PONATINIB] | -5.61 | -5.12 | -6.72 | -5.89 | -4.86 | -5.11 | -5.29 | -4.84 | -4.81 | -4.88 | -5.38 | -7.54 | -5.61 | -5.28 | -5.22 | -5.47 | 101 | 95 | 103
8 | O=C(Nc1ccccc1-c1cn2c(CN3CCNCC3)csc2n1)c1cnc2ccccc2n1 [SRT1720] | -5.4 | -5.43 | -5.43 | -4.93 | -5.36 | -5.14 | -5.34 | -4.97 | -5.41 | -4.96 | -5.19 | -5.7 | -5.41 | -5.16 | -5.49 | -5.08 | 102 | 91.6 | 98.3
9 | CCN(CC)CCNC(=O)c1c(C)[nH]c(/C=C2\C(=O)Nc3ccc(F)cc32)c1C [SUNITINIB] | -4.99 | -5.05 | -5.03 | -4.96 | -5.01 | -4.88 | -5.05 | -4.97 | -4.83 | -4.94 | -4.77 | -5.41 | -5.16 | -4.95 | -5.25 | -4.77 | 116 | 97.5 | 122
10 | CN(C)C/C=C/C(=O)Nc1ccc(C(=O)Nc2cccc(Nc3ncc(Cl)c(-c4c[nH]c5ccccc45)n3)c2)cc1 [THZ1] | -8.02 | -5.76 | -8.19 | -6.72 | -8.04 | -7.28 | -8.07 | -7.78 | -7.91 | -7.62 | -7.71 | -8.32 | -7.58 | -7.44 | -7.25 | -7.15 | 88.6 | 99.1 | 100

— the supplement of paper PMC8253809
